# Values joined by “and” are separate entries in the source; they are usually repeats but may differ in a detail not shown here. Identical values can stand only once. Inconclusive results and toxic doses are left out.
# Test system: BDF1 mice, P388 leukemia ip, median survival T/C
# Assay: NCI In Vivo Anticancer Drug Screen. Data for tumor model P388 Leukemia (intraperitoneal) in B6D2F1 (BDF1) mice
# Details: endpoint: median survival time, higher = longer survival
# Summary of the method: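 T/C = treated-group survival ÷ vehicle-control survival; tumour transplanted into mice before dosing.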
# [1] = dose: 100.0 mg/kg/injection, schedule: Q04DX002 (ip), vehicle: saline with Tween-80
# [2] = dose: 200.0 mg/kg/injection, schedule: Q04DX002 (ip), vehicle: saline with Tween-80
# [3] = dose: 400.0 mg/kg/injection, schedule: Q04DX002 (ip), vehicle: saline with Tween-80
# [4] = dose: 100.0 mg/kg/injection, schedule: Q04DX003 (ip), vehicle: saline with Tween-80
# [5] = dose: 50.0 mg/kg/injection, schedule: Q01DX009 (ip), vehicle: saline with Tween-80
# [6] = dose: 100.0 mg/kg/injection, schedule: Q01DX009 (ip), vehicle: saline with Tween-80
# [7] = dose: 200.0 mg/kg/injection, schedule: Q01DX009 (ip), vehicle: saline with Tween-80
# [8] = dose: 400.0 mg/kg/injection, schedule: Q01DX009 (ip), vehicle: saline with Tween-80
# [9] = dose: 400.0 mg/kg/injection, schedule: Q04DX003 (ip), vehicle: saline with Tween-80
# [10] = dose: 12.5 mg/kg/injection, schedule: Q01DX009 (ip), vehicle: saline with Tween-80
structure (smiles),measurement,setting,value
C=CCO,T/C,"dose: 12.5 mg/kg/injection, schedule: Q01DX001 (ip), vehicle: saline with Tween-80",95 % of control
same,T/C,"dose: 25.0 mg/kg/injection, schedule: Q01DX001 (ip), vehicle: saline with Tween-80",104 % of control
same,T/C,"dose: 50.0 mg/kg/injection, schedule: Q01DX001 (ip), vehicle: saline with Tween-80",100 % of control
CN(C)c1ccc(/C=C/c2ccnc3c(N)cccc23)cc1,T/C,[1],110 % of control
same,T/C,[2],113 % of control
same,T/C,[3],116 % of control
CCCCOc1cc(C(=O)O)ccc1[N+](=O)[O-],T/C,"dose: 25.0 mg/kg/injection, schedule: Q04DX003 (ip), vehicle: saline with Tween-80",100 % of control
same,T/C,"dose: 50.0 mg/kg/injection, schedule: Q04DX003 (ip), vehicle: saline with Tween-80",100 % of control
same,T/C,[4],104 % of control
O=C1CC(SC(=S)C2CCCC2=O)C(=O)O1 (centres undefined),T/C,[5],122 % of control
NC(=O)c1ccc(-c2c3ccccc3cc3c2ccc2ccccc23)cc1,T/C,[5],95 % of control
same,T/C,[6],89 % of control
same,T/C,[7],89 % of control
same,T/C,[8],106 % of control
CC(CNC(=O)CCOS(C)(=O)=O)NC(=O)CCOS(C)(=O)=O (centres undefined),T/C,"dose: 264.0 mg/kg/injection, schedule: Q04DX003 (ip), vehicle: saline with Tween-80",213 % of control
same,T/C,"dose: 267.0 mg/kg/injection, schedule: Q04DX003 (ip), vehicle: saline with Tween-80",183 % of control
same,T/C,[9],208 % of control and 209 % of control
same,T/C,"dose: 500.0 mg/kg/injection, schedule: Q04DX003 (ip), vehicle: saline with Tween-80",212 % of control
same,T/C,"dose: 600.0 mg/kg/injection, schedule: Q04DX003 (ip), vehicle: saline with Tween-80",109 % of control
O=C(Nc1cccc(Cl)c1)Nc1ccccc1Cl,T/C,[4],97 % of control
same,T/C,"dose: 200.0 mg/kg/injection, schedule: Q04DX003 (ip), vehicle: saline with Tween-80",108 % of control
same,T/C,[9],91 % of control
CCP(CC)c1ccccc1,T/C,"dose: 100.0 mg/kg/injection, schedule: Q01DX009 (sc), vehicle: olive oil, sesame oil, peanut oil",96 % of control
same,T/C,"dose: 100.0 mg/kg/injection, schedule: Q04DX003 (sc), vehicle: olive oil, sesame oil, peanut oil",92 % of control
same,T/C,"dose: 200.0 mg/kg/injection, schedule: Q01DX009 (sc), vehicle: olive oil, sesame oil, peanut oil",96 % of control
same,T/C,"dose: 200.0 mg/kg/injection, schedule: Q04DX003 (sc), vehicle: olive oil, sesame oil, peanut oil",100 % of control
same,T/C,"dose: 400.0 mg/kg/injection, schedule: Q01DX009 (sc), vehicle: olive oil, sesame oil, peanut oil",88 % of control
same,T/C,"dose: 400.0 mg/kg/injection, schedule: Q04DX003 (sc), vehicle: olive oil, sesame oil, peanut oil",92 % of control
S=c1nc[nH]c2nc[nH]c12,T/C,[10],104 % of control
same,T/C,"dose: 15.0 mg/kg/injection, schedule: Q01DX010 (ip), vehicle: saline",150 % of control
same,T/C,"dose: 20.0 mg/kg/injection, schedule: Q01DX010 (ip), vehicle: saline",100 % of control
same,T/C,"dose: 20.0 mg/kg/injection, schedule: Q01DX010 (ip), vehicle: water",110 % of control
same,T/C,"dose: 25.0 mg/kg/injection, schedule: Q01DX009 (ip), vehicle: saline with Tween-80",113 % of control
same,T/C,"dose: 26.0 mg/kg/injection, schedule: Q01DX009 (ip), vehicle: alkali diluted with saline",104 % of control and 107 % of control
same,T/C,"dose: 30.0 mg/kg/injection, schedule: Q01DX010 (ip), vehicle: saline",90 % of control and 104 % of control
same,T/C,"dose: 40.0 mg/kg/injection, schedule: Q01DX010 (ip), vehicle: saline",100 % of control
same,T/C,"dose: 40.0 mg/kg/injection, schedule: Q01DX010 (ip), vehicle: water",110 % of control
same,T/C,"dose: 60.0 mg/kg/injection, schedule: Q01DX010 (ip), vehicle: water",110 % of control
same,T/C,"dose: 72.0 mg/kg/injection, schedule: Q01DX009 (ip), vehicle: alkali diluted with saline",117 % of control
same,T/C,"dose: 80.0 mg/kg/injection, schedule: Q01DX010 (ip), vehicle: saline",104 % of control
same,T/C,"dose: 90.0 mg/kg/injection, schedule: Q01DX009 (ip), vehicle: alkali diluted with saline",107 % of control and 111 % of control
same,T/C,"dose: 120.0 mg/kg/injection, schedule: Q01DX009 (ip), vehicle: alkali diluted with saline",103 % of control
same,T/C,"dose: 120.0 mg/kg/injection, schedule: Q01DX010 (ip), vehicle: saline",109 % of control
same,T/C,"dose: 160.0 mg/kg/injection, schedule: Q01DX010 (ip), vehicle: saline",90 % of control
Cc1oc(-c2ccccc2)nc1C(C)(O)c1ccccc1 (centres undefined),T/C,[1],118 % of control
same,T/C,[2],103 % of control
same,T/C,[3],112 % of control
O=C1c2ccccc2C(=O)c2c(Nc3ccc(CCO)cc3)ccc(O)c21,T/C,"dose: 100.0 mg/kg/injection, schedule: Q04DX003 (ip), vehicle: Klucel (hydroxypropylcellulose) (HPC)",100 % of control
same,T/C,"dose: 200.0 mg/kg/injection, schedule: Q04DX003 (ip), vehicle: Klucel (hydroxypropylcellulose) (HPC)",100 % of control
same,T/C,"dose: 400.0 mg/kg/injection, schedule: Q04DX003 (ip), vehicle: Klucel (hydroxypropylcellulose) (HPC)",111 % of control
CC1C(=O)OC2CC[N+]3([O-])CC=C(COC(=O)C(C)(O)C1(C)O)C23 (centres undefined),T/C,"dose: 100.0 mg/kg/injection, schedule: Q01DX010 (ip), vehicle: saline",100 % of control
same,T/C,"dose: 400.0 mg/kg/injection, schedule: Q01DX010 (ip), vehicle: saline",110 % of control
Clc1cccc(NC2=NCCN=C(Nc3cccc(Cl)c3)SS2)c1,T/C,[5],111 % of control
same,T/C,[6],102 % of control
same,T/C,[7],111 % of control
CCCCCCCCCCCC1=NCCN1,T/C,"dose: 3.13 mg/kg/injection, schedule: Q01DX009 (ip), vehicle: saline with Tween-80",96 % of control
same,T/C,"dose: 6.25 mg/kg/injection, schedule: Q01DX009 (ip), vehicle: saline with Tween-80",100 % of control
same,T/C,[10],104 % of control
same,T/C,"dose: 12.5 mg/kg/injection, schedule: Q04DX003 (ip), vehicle: saline with Tween-80",96 % of control
Nc1ccc(OS(=O)(=O)c2ccccc2)cc1,T/C,[5],98 % of control
same,T/C,[6],108 % of control
same,T/C,[7],100 % of control
same,T/C,[8],90 % of control
O=C(Cn1ccc(O)cc1=O)c1ccc(Cl)s1,T/C,[6],98 % of control
same,T/C,[7],93 % of control
same,T/C,[8],104 % of control
O=[N+]([O-])c1ccc(/C=[N+](\[O-])CCO)o1,T/C,[5],111 % of control
same,T/C,[6],113 % of control
same,T/C,[7],111 % of control
COc1cc2c(cc1OC)[C@]13C[C@@H](OC)CC=C1CCN3CCC2,T/C,"dose: 5.0 mg/kg/injection, schedule: Q01DX009 (ip), vehicle: alcohol",100 % of control
same,T/C,"dose: 10.0 mg/kg/injection, schedule: Q01DX009 (ip), vehicle: alcohol",95 % of control
same,T/C,"dose: 20.0 mg/kg/injection, schedule: Q01DX009 (ip), vehicle: alcohol",90 % of control
same,T/C,"dose: 40.0 mg/kg/injection, schedule: Q01DX009 (ip), vehicle: alcohol",90 % of control
CC(=O)N(CCN(Cc1ccc(Oc2ccc([N+](=O)[O-])cc2[N+](=O)[O-])cc1)C(C)=O)CCN(Cc1ccc(Oc2ccc([N+](=O)[O-])cc2[N+](=O)[O-])cc1)C(C)=O,T/C,"dose: 25.0 mg/kg/injection, schedule: Q01DX009 (ip), vehicle: other",94 % of control
same,T/C,"dose: 50.0 mg/kg/injection, schedule: Q01DX009 (ip), vehicle: other",103 % of control
same,T/C,"dose: 100.0 mg/kg/injection, schedule: Q01DX009 (ip), vehicle: other",100 % of control
same,T/C,"dose: 200.0 mg/kg/injection, schedule: Q01DX009 (ip), vehicle: other",94 % of control
same,T/C,"dose: 400.0 mg/kg/injection, schedule: Q01DX009 (ip), vehicle: other",103 % of control
COc1cc2c(cc1OC)C1c3cc(OC)c(OC)cc3CC(=O)N1CC2 (centres undefined),T/C,"dose: 0.09 mg/kg/injection, schedule: Q01DX009 (ip), vehicle: saline",110 % of control
same,T/C,"dose: 0.39 mg/kg/injection, schedule: Q01DX009 (ip), vehicle: saline",88 % of control
same,T/C,"dose: 0.78 mg/kg/injection, schedule: Q01DX009 (ip), vehicle: saline",98 % of control
same,T/C,"dose: 1.56 mg/kg/injection, schedule: Q01DX009 (ip), vehicle: saline",99 % of control
same,T/C,"dose: 3.12 mg/kg/injection, schedule: Q01DX009 (ip), vehicle: saline",100 % of control
same,T/C,"dose: 12.5 mg/kg/injection, schedule: Q01DX009 (ip), vehicle: saline",108 % of control
same,T/C,"dose: 50.0 mg/kg/injection, schedule: Q04DX003 (ip), vehicle: saline",102 % of control
same,T/C,"dose: 100.0 mg/kg/injection, schedule: Q01DX009 (ip), vehicle: saline",92 % of control
same,T/C,"dose: 100.0 mg/kg/injection, schedule: Q04DX003 (ip), vehicle: saline",99 % of control
same,T/C,"dose: 200.0 mg/kg/injection, schedule: Q04DX003 (ip), vehicle: saline",102 % of control
same,T/C,"dose: 400.0 mg/kg/injection, schedule: Q04DX003 (ip), vehicle: saline",93 % of control

# Source: PubChem BioAssay AID328 (DTP/NCI, 2004)
